Reference: US20110009403A1, “2-MORPHOLINYLPURINES AS INHIBITORS OF PI3K” (S*BIO Pte Ltd., priority 2007, published 2011)

What was measured:
[1] = target: mTOR (Homo sapiens, UniProt P42345); assay: mTOR assay (phosphorylation of 4eBP1, [γ33P]-ATP filter plate); assay type: biochemical; details: 10 μM ATP, 1 hour at room temperature
Method: Truncated mTOR kinase and His-tagged 4eBP1 were produced in-house. [γ^33P]-ATP was purchased from Amersham (GE Healthcare). All chemicals, unless otherwise stated, were from Sigma-Aldrich.
Phosphorylation assays were initially performed in a final volume of 20 μL in 384-well polypropylene plate (Greiner). Compounds were typically tested over the range from 100 μM to 0.006 μM, in 8 step dilutions, in duplicate. 10 μL/well of 2× Enzyme-Substrate solution (1.5 μg/mL mTOR, 40 μg/mL 4eBP1 in 1× assay buffer: 10 mM Hepes pH 7.5, 50 mM NaCl and 10 mM MnCl2) were first added to the sample plate containing 1 μL/well of test compound in neat DMSO. The reaction was initiated by adding 10 μL/well of 20 μM ATP solution (final assay concentration 10 μM ATP and 0.4 μCi/well of [γ^33P]-ATP). After 1 hour incubation at room temperature, the reaction was terminated with 40 μL/well of 20 mM EDTA/1 mM ATP solution.
50 μL/well of the stopped reaction mix was then transferred to 384-well MultiScreenHTS-PH filter plate (Millipore) pre-added with 50 μL/well of 1% phosphoric acid. The plate was washed 4 times with 120 μL/well of 0.5% phosphoric acid via vacuum filtration. Finally, 10 μL/well of Optiphase™ SuperMix liquid scintillation cocktail (Perkin Elmer) was added. After minimum 1 hour of incubation, counting was performed in a Wallac MicroBeta TriLux scintillation counter using coincidence counting mode with crosstalk correction.

[2] = target: T1, PI3K p110α/p85 (Homo sapiens, UniProt P42336); assay: PI3K assay ([γ33P]ATP, PtdIns/PtdSer coated plates); assay type: biochemical; details: 2 μM ATP, 1 hour at RT; read-out: IC50 (PI3Kα)
T1 construct: made in house
Method: Recombinant PI3K p110α/p85 was prepared in-house. Phosphatidylinositol (PtdIns), phosphotidylserine (PtdSer) and all other unspecified chemicals were purchased from Sigma-Aldrich. [γ^33P]ATP and Optiphase scintillant were obtained from Perkin Elmer.
Assays were performed in a final assay volume of 25 μL in 384-well Maxisorp plates (Nunc). Compounds were tested at 8 concentrations in 3-fold serial dilution, generally starting from 10 μM. Maxisorp plates were coated with 20 μL/well of a 1:1 mixture of PtdIns and PtdSer [0.1 mg/mL each dissolved in chloroform:ethanol (3:7)] and left overnight in a fume hood at room temperature (RT) to dry.
The enzyme reaction was created by pipetting 5 μL/well of compound (in 2.5% DMSO), 10 μL/well of enzyme (0.5 μg/mL p110α+1 μg/mL p85), and 10 μL/well of 5 μM ATP with 5 μCi/mL [γ^33P]ATP in assay buffer (final concentrations: 0.2 μg/mL p110α, 2 μM ATP, […] [γ^33P]ATP in 1× assay buffer: 100 mM Tris-HCl pH 7.0, 200 mM NaCl, 8 mM MgCl2). The reaction was incubated for 1 hour at RT and terminated with 30 μL/well of 50 mM EDTA solution. The plate was then washed twice with TBS, dried, and added with 30 μL/well of scintillant before it was counted in a MicroBeta Trilux.

T1 sequence (P42336 whole entry): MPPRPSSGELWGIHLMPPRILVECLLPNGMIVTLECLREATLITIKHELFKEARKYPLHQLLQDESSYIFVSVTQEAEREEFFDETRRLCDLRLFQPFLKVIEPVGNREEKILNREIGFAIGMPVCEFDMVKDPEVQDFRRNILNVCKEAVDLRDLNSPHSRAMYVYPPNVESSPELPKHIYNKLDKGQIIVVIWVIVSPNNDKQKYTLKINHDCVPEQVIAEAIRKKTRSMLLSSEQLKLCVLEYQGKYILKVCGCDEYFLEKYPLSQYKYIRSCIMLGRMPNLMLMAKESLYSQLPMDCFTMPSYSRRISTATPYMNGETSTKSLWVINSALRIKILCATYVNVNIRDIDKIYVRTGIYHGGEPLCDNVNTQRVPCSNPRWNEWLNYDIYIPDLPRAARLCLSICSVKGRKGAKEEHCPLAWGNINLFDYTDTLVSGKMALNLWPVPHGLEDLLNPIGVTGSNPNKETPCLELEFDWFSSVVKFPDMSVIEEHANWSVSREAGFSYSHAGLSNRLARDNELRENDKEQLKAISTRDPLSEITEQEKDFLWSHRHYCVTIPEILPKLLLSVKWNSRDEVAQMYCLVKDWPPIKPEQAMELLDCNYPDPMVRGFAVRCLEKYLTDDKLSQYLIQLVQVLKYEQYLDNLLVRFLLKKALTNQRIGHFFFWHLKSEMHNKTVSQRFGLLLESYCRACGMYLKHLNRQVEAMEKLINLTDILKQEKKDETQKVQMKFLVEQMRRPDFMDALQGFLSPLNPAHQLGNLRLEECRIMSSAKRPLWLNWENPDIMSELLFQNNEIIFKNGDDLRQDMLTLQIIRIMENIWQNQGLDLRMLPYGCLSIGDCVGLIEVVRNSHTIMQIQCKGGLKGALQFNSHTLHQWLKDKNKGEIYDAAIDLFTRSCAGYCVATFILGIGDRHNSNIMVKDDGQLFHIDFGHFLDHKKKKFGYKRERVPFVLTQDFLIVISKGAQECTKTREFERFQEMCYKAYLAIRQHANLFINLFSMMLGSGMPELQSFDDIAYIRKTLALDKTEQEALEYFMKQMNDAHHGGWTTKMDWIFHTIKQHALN
T1 sequence (P27986 whole entry partner): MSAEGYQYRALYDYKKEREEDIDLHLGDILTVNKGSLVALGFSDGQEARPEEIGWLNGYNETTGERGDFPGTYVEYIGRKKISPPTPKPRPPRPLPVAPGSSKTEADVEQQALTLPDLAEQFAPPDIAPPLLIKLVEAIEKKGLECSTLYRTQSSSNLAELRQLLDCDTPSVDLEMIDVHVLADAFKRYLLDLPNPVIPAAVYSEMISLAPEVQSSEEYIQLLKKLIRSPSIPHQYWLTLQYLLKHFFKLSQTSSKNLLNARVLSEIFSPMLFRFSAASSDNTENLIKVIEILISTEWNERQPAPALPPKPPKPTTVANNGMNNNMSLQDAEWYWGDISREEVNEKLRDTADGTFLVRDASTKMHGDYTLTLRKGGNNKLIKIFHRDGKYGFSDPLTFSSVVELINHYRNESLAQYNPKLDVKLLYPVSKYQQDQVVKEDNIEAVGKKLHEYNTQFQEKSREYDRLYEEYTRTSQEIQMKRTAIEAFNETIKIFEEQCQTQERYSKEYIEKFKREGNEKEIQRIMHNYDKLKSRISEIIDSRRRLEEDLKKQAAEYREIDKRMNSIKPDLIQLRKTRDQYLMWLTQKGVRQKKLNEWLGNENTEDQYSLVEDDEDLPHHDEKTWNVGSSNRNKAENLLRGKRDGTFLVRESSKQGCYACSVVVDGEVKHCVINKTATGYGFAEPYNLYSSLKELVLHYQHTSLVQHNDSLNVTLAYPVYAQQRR
mTOR, sequence (P42345 1382-2549 limits assumed): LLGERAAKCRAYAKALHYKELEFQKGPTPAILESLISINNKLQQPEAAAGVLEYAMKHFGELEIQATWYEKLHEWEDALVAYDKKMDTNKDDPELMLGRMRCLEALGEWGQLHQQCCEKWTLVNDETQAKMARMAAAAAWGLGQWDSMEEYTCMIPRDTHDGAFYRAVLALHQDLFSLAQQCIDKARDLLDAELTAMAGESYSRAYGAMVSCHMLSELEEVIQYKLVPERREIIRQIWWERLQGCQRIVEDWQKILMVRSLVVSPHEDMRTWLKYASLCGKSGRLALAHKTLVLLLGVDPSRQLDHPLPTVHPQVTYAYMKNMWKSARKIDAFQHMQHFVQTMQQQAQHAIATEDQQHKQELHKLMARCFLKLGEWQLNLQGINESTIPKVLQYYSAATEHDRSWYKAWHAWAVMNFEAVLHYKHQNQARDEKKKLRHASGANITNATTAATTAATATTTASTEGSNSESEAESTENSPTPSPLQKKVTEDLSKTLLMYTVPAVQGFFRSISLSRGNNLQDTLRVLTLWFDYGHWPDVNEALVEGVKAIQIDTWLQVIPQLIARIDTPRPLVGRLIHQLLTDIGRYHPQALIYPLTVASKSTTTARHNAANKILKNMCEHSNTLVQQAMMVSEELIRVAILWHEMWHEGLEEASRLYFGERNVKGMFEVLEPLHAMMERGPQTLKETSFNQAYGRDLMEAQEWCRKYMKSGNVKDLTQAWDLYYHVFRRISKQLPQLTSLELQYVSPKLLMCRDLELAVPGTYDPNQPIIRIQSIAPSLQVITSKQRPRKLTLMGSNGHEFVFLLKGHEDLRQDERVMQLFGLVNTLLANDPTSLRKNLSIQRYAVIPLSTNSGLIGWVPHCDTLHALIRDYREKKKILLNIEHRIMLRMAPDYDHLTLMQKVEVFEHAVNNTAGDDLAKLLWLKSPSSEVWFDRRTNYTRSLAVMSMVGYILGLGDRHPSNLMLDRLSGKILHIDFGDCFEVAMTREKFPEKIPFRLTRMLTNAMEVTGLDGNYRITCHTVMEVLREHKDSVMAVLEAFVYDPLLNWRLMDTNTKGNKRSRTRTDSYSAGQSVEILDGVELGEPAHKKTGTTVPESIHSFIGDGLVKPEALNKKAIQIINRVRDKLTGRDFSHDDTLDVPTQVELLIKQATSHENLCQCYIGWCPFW

| IC50 [1] [µM] | IC50 [2] [µM] | Structure (SMILES) |
| --- | --- | --- |
| < 1 | < 1 | Oc1cccc(-c2nc(N3CCOCC3)nc3c2ncn3Cc2cc(F)cc(F)c2)c1 [Compound 37] |
| 1 to 5 | > 5 | Nc1ccc(-c2nc(N3CCOCC3)nc3c2ncn3Cc2ccccc2)cc1N [Compound 38] |
| 1 to 5 | 1 to 5 | c1ccc(Cn2cnc3c(-c4ccc5nn[nH]c5c4)nc(N4CCOCC4)nc32)cc1 [Compound 39] |
| > 5 | > 5 | O=c1[nH]c2ccc(-c3nc(N4CCOCC4)nc4c3ncn4Cc3ccccc3)cc2[nH]1 [Compound 40] |
| < 1 | < 1 | Nc1cccc(Cn2cnc3c(-c4cccc(O)c4)nc(N4CCOCC4)nc32)c1 [Compound 41] |
| 1 to 5 | < 1 | CS(=O)(=O)Nc1ccc(Cn2cnc3c(-c4cccc(O)c4)nc(N4CCOCC4)nc32)cc1 [Compound 42] |
| > 5 | > 5 | CS(=O)(=O)Nc1cccc(-c2nc(N3CCOCC3)nc3c2ncn3Cc2ccccc2)c1 [Compound 43] |
| < 1 | < 1 | Oc1cccc(-c2nc(N3CCOCC3)nc3c2ncn3CCOc2ccccc2)c1 [Compound 44] |
| < 1 |  | Oc1cccc(-c2nc(N3CCOCC3)nc3c2ncn3C/C=C/c2ccccc2)c1 [Compound 45] |
| < 1 |  | Oc1cccc(-c2nc(N3CCOCC3)nc3c2ncn3Cc2ccc3ccccc3c2)c1 [Compound 46] |
| 1 to 5 | > 5 | Fc1cccc(Cn2cnc3c(-c4ccc5[nH]ccc5c4)nc(N4CCOCC4)nc32)c1 [Compound 47] |
| 1 to 5 |  | Oc1cccc(-c2nc(N3CCOCC3)nc3[nH]cnc23)c1 [Compound 48] |
| 1 to 5 | < 1 | CC(=O)Nc1cccc(Cn2cnc3c(-c4cccc(O)c4)nc(N4CCOCC4)nc32)c1 [Compound 49] |
| < 1 | < 1 | C#CCn1cnc2c(-c3cccc(O)c3)nc(N3CCOCC3)nc21 [Compound 53] |
| > 5 | 1 to 5 | CS(=O)(=O)Nc1cccc(Cn2cnc3c(-c4cccc(O)c4)nc(N4CCOCC4)nc32)c1 [Compound 55] |
| > 5 | > 5 | CC(=O)Nc1cccc(-c2nc(N3CCOCC3)nc3c2ncn3-c2ccccc2)c1 [Compound 56] |
| < 1 | < 1 | Oc1cccc(-c2nc(N3CCOCC3)nc3c2ncn3C2CCCCO2)c1 (stereo not shown) [Compound 57] |
| 1 to 5 | > 5 | c1ccc(Cn2cnc3c(-c4ccc5[nH]ccc5c4)nc(N4CCOCC4)nc32)cc1 [Compound 58] |
| < 1 |  | CC(C)(C)OC(=O)N1CCC(n2cnc3c(-c4cccc(O)c4)nc(N4CCOCC4)nc32)CC1 [Compound 71] |
| < 1 |  | CCOC(=O)Cn1cnc2c(-c3cccc(O)c3)nc(N3CCOCC3)nc21 [Compound 74, ethyl-2-(6-(3-hydroxyphenyl)-2-morpholino-9H-purin-9-yl)acetate] |
| < 1 |  | Oc1cccc(-c2nc(N3CCOCC3)nc3c2ncn3C2CCNCC2)c1 [Compound 85] |
|  | < 1 | CC(C)(C)OC(=O)N1CCC(n2cnc3c(-c4cccc(O)c4)nc(N4CCOCC4)nc32)CC1 [Compound 86] |
| < 1 |  | CC(C)C(C)n1cnc2c(-c3cccc(O)c3)nc(N3CCOCC3)nc21 (stereo not shown) [Compound 100] |

The next lines start with the compound.

| Structure (SMILES) | IC50 [1] [µM] | IC50 [2] [µM] |
| --- | --- | --- |
| OCc1cccc(-c2nc(N3CCOCC3)nc3c2ncn3Cc2ccccc2)c1 [Compound 1] | 1 to 5 | < 1 |
| Oc1cc(F)cc(-c2nc(N3CCOCC3)nc3c2ncn3Cc2ccccc2)c1 [Compound 3] | < 1 | < 1 |
| CC(=O)Nc1cccc(-c2nc(N3CCOCC3)nc3c2ncn3Cc2ccccc2)c1 [Compound 4] | > 5 | > 5 |
| Oc1ccc(-c2nc(N3CCOCC3)nc3c2ncn3Cc2ccccc2)cc1 [Compound 5] | 1 to 5 | > 5 |
| c1ccc(Cn2cnc3c(-c4ccc5cc[nH]c5c4)nc(N4CCOCC4)nc32)cc1 [Compound 6] | > 5 | > 5 |
| Oc1cccc(-c2nc(N3CCOCC3)nc3c2ncn3Cc2c(F)cccc2F)c1 [Compound 7] | < 1 | < 1 |
| N#Cc1cccc(Cn2cnc3c(-c4cccc(O)c4)nc(N4CCOCC4)nc32)c1 [Compound 9] | < 1 | < 1 |
| COCCn1cnc2c(-c3ccc4cc[nH]c4c3)nc(N3CCOCC3)nc21 [Compound 10, 6-(1H-Indol-6-yl)-9-(2-methoxy-ethyl)-2-morpholin-4-yl-9H-purine] | 1 to 5 | > 5 |
| COCCn1cnc2c(-c3cccc(O)c3)nc(N3CCOCC3)nc21 [Compound 11, 3-[9-(2-Methoxy-ethyl)-2-morpholin-4-yl-9H-purin-6-yl]-phenol] | < 1 | < 1 |
| Oc1cccc(-c2nc(N3CCOCC3)nc3c2ncn3Cc2cccc(OC(F)(F)F)c2)c1 [Compound 12] | 1 to 5 | > 5 |
| COC(=O)c1ccc(Cn2cnc3c(-c4cccc(O)c4)nc(N4CCOCC4)nc32)cc1 [Compound 13] | 1 to 5 | < 1 |
| COc1cc(Cn2cnc3c(-c4cccc(O)c4)nc(N4CCOCC4)nc32)cc(OC)c1 [Compound 14] | < 1 | < 1 |
| Oc1cccc(-c2nc(N3CCOCC3)nc3c2ncn3Cc2cccc(F)c2)c1 [Compound 15] | < 1 | < 1 |
| COc1cccc(Cn2cnc3c(-c4cccc(O)c4)nc(N4CCOCC4)nc32)c1 [Compound 17] | < 1 | < 1 |
| COc1cccc(Cn2cnc3c(-c4ccc5cc[nH]c5c4)nc(N4CCOCC4)nc32)c1 [Compound 18] | 1 to 5 | > 5 |
| O=[N+]([O-])c1ccc(Cn2cnc3c(-c4cccc(O)c4)nc(N4CCOCC4)nc32)cc1 [Compound 19, 3-[2-Morpholin-4-yl-9-(4-nitro-benzyl)-9H-purin-6-yl]-phenol] | < 1 | < 1 |
| Nc1ccc(Cn2cnc3c(-c4cccc(O)c4)nc(N4CCOCC4)nc32)cc1 [Compound 20, 3-[9-(4-Amino-benzyl)-2-morpholin-4-yl-9H-purin-6-yl]-phenol] | < 1 | < 1 |
| c1cc2ccc(-c3nc(N4CCOCC4)nc4c3ncn4CC3CC3)cc2[nH]1 [Compound 21] | < 1 | > 5 |
| C=CCCn1cnc2c(-c3ccc4cc[nH]c4c3)nc(N3CCOCC3)nc21 [Compound 23] | 1 to 5 | > 5 |
| CCOC(=O)CCn1cnc2c(-c3cccc(O)c3)nc(N3CCOCC3)nc21 [Compound 24] | < 1 |  |
| CCOC(=O)CCn1cnc2c(-c3ccc4cc[nH]c4c3)nc(N3CCOCC3)nc21 [Compound 25] | 1 to 5 |  |
| O=C(CCN1CCCCC1)Nc1ccc(Cn2cnc3c(-c4cccc(O)c4)nc(N4CCOCC4)nc32)cc1 [Compound 26, N-{4-[6-(3-Hydroxy-phenyl)-2-morpholin-4-yl-purin-9-ylmethyl]-phenyl}-3-piperidin-1-yl-propionamide] | 1 to 5 | < 1 |
| c1ccc(Cn2cnc3c(-c4ccc5nc[nH]c5c4)nc(N4CCOCC4)nc32)cc1 [Compound 28] | 1 to 5 | 1 to 5 |
| Nc1cccc(-c2nc(N3CCOCC3)nc3c2ncn3Cc2ccccc2)c1 [Compound 29] | 1 to 5 | > 5 |
| Oc1cccc(-c2nc(N3CCOCC3)nc3c2ncn3Cc2ccc(C(F)(F)F)cc2)c1 [Compound 30] | 1 to 5 | 1 to 5 |
| O=[N+]([O-])c1cccc(Cn2cnc3c(-c4cccc(O)c4)nc(N4CCOCC4)nc32)c1 [Compound 31] | < 1 | < 1 |
| CC(=O)Nc1ccc(Cn2cnc3c(-c4cccc(O)c4)nc(N4CCOCC4)nc32)cc1 [Compound 32] | 1 to 5 | < 1 |
| CC(=O)Nc1ccc(Cn2cnc3c(-c4cccc(OC(C)=O)c4)nc(N4CCOCC4)nc32)cc1 [Compound 33] | > 5 | < 1 |
| CCNc1ccc(Cn2cnc3c(-c4cccc(O)c4)nc(N4CCOCC4)nc32)cc1 [Compound 34] | 1 to 5 | < 1 |
